Data as given in patent publication EP4660182A1, “NAV1.7- AND/OR NAV1.8-INHIBITING ARYL PYRIDINE COMPOUNDS, PROCESSES FOR THE PREPARATION THEREOF, COMPOSITIONS, USES, METHODS FOR TREATMENT USING SAME, AND KITS” (Eurofarma Laboratórios S.A., priority 2023, dated 2024).

Assays:
[1] = target: T1, human sodium channels Nav 1.8 (Homo sapiens, UniProt Q9Y5Y9); assay: Automated whole-cell voltage-clamp (ScreenPatch 384P) sodium current block, Nav 1.8; type: cell-based; settings: CHO cells stably expressing human Nav 1.8; inactivation step -40 mV 8 s, test step 10 mV (TP1A); eight concentrations; exposure at least five minutes; room temperature; read-out: Nav1.8 IC50
T1 construct: expressed in transfected cells
T1 sequence (Q9Y5Y9 whole entry): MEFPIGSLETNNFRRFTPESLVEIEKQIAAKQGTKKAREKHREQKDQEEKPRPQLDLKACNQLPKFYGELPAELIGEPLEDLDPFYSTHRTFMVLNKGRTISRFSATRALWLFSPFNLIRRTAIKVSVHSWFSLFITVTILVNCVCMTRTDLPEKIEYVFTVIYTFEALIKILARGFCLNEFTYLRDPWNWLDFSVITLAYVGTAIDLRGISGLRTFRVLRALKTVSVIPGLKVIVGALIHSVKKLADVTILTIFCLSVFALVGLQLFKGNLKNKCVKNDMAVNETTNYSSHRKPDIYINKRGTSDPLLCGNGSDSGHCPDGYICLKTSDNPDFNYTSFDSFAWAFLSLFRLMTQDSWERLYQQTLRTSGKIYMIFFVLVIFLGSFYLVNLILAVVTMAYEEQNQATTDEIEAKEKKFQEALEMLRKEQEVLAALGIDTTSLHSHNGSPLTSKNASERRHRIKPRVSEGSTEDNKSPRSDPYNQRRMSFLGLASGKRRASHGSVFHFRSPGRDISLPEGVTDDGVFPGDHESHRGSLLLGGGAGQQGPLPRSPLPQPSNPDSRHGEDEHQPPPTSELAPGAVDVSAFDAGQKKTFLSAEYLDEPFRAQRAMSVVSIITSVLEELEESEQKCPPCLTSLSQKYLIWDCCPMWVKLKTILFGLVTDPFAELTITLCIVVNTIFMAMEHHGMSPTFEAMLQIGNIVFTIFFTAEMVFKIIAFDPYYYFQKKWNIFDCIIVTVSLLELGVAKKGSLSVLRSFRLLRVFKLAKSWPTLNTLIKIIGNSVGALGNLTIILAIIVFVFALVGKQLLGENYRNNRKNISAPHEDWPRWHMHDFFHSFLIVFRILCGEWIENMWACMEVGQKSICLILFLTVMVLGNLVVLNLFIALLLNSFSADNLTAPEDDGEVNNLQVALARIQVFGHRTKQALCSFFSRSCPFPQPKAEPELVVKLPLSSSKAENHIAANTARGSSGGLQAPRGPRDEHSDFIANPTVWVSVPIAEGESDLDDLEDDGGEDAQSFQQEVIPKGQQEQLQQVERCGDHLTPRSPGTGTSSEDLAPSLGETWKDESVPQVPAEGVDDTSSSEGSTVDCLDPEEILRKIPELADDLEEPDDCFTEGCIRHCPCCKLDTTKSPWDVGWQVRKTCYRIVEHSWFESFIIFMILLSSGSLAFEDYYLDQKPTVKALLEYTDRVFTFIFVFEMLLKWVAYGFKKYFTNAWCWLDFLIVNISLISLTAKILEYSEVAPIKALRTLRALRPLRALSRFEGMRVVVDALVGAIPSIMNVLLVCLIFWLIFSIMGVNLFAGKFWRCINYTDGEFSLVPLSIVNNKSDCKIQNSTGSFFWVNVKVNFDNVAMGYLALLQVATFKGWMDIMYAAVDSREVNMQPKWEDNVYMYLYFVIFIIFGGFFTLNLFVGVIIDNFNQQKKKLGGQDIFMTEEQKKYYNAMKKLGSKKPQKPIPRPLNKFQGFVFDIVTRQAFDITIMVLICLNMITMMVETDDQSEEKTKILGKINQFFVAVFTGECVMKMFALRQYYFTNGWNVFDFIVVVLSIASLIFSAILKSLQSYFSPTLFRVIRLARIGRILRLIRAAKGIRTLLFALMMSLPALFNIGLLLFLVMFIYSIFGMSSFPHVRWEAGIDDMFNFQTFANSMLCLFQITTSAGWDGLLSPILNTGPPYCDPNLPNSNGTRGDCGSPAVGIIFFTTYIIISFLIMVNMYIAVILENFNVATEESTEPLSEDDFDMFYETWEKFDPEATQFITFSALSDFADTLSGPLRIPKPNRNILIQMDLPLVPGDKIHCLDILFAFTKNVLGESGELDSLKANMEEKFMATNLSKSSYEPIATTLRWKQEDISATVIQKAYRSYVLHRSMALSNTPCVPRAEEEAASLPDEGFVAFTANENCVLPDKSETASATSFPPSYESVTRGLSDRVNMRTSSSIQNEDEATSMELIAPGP
How it was run: (§1)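 Stable CHO lines, whole-cell automated patch clamp at room temperature, ≥5 min exposure, eight concentrations. From -100 mV hold, 8 s at -40 mV, 20 ms at -100 mV, then test pulse to 10 mV (Nav 1.8) or 0 mV (Nav 1.7) at 0.05 Hz; peak-current % block fitted for IC50, averaged over repeats.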

[2] = target: T2, human sodium channels Nav 1.7 (Homo sapiens, UniProt Q15858); assay: Automated whole-cell voltage-clamp (ScreenPatch 384P) sodium current block, Nav 1.7; type: cell-based; settings: CHO cells stably expressing human Nav 1.7; inactivation step -40 mV 8 s, test step 0 mV (TP1A); eight concentrations; exposure at least five minutes; room temperature; read-out: Nav1.7 IC50
T2 construct: expressed in transfected cells
T2 sequence (Q15858 whole entry): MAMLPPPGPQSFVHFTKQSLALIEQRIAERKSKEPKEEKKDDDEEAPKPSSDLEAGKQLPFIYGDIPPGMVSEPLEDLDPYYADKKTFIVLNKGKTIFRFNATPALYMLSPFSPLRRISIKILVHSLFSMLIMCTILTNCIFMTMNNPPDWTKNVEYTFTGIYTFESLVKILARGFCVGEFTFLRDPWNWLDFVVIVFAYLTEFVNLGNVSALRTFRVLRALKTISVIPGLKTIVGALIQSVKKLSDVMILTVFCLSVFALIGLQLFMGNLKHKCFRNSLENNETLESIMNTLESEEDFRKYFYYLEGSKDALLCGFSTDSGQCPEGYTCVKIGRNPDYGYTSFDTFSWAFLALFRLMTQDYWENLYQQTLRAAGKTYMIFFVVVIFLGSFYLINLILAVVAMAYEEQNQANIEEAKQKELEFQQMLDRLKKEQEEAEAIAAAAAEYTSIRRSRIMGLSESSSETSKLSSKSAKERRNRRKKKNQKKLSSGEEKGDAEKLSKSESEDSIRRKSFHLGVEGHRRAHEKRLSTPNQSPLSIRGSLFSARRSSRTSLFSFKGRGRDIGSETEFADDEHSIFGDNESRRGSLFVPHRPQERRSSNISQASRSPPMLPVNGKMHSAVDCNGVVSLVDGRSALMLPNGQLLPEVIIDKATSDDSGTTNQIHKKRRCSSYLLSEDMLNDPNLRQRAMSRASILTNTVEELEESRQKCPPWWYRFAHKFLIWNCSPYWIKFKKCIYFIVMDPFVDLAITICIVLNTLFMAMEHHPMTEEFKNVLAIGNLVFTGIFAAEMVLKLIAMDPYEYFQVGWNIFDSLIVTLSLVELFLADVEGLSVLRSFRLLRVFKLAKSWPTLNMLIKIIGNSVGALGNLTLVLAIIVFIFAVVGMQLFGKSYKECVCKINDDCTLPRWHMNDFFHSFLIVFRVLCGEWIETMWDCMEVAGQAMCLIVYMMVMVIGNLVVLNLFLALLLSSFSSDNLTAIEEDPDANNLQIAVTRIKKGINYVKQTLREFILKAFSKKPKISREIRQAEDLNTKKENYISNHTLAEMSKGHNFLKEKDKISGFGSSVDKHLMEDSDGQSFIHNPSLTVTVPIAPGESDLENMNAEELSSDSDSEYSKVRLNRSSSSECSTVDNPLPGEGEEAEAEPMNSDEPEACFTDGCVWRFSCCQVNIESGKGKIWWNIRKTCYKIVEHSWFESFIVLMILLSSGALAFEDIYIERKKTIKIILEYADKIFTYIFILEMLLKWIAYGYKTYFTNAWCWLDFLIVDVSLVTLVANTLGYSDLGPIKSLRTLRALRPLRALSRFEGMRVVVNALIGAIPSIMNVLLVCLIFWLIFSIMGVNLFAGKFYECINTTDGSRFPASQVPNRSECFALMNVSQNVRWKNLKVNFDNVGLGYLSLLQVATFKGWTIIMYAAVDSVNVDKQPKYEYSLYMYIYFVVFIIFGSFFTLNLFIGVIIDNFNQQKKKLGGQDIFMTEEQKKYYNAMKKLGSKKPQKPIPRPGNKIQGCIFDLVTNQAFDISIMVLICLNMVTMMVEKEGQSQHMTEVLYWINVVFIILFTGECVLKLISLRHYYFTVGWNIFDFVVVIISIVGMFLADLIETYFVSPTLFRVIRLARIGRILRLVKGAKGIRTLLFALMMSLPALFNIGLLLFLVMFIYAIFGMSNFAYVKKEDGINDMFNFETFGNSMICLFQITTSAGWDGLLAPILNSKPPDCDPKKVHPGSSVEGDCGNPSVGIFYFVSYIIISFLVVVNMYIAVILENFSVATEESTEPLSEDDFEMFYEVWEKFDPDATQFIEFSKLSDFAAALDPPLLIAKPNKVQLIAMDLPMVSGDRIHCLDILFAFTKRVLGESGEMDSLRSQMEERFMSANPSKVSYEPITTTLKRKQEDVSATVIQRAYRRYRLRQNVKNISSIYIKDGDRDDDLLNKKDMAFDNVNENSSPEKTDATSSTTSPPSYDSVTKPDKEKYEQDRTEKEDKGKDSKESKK
How it was run: as §1

SMILES	IC50 [1]	IC50 [2]
CCOc1ccc(-c2ccnc(C(=O)N/N=C/c3cc(OC)cnc3F)n2)cn1 [Compound 73, (E)-4-(6-ethoxypyridine-3-yl)-N'-((2-fluoro-5-methoxypyridine-3-yl)methylene) pyrimidine-2-carbohydrazide]	500 to 1000 nM	> 1000 nM
CCOc1ccc(-c2cncc(C(=O)N/N=C/c3cncn3C)n2)cn1 [Compound 58, (E)-6-(6-ethoxypyridine-3-yl)-N'-((1-methyl-1H-imidazole-5-yl)methylene)pyrazine-2-carbohydrazide]	> 1000 nM	> 1000 nM
COc1ccc(F)c(/C=N/NC(=O)c2nc(-c3ccc(OC(F)(F)F)nc3)cnc2O)c1 [Compound 99, (E)-N'-(2-fluoro-5-methoxybenzylidene)-3-hydroxy-6-(6-(trifluoromethoxy)pyridine-3-yl)pyrazine-2-carbohydrazide]	> 1000 nM	> 1000 nM
CCOc1ccc(-c2cncc(C(=O)N/N=C/c3cccc(C(C)O)c3)n2)cn1 (centres unmarked) [Compound 22, (E)-6-(6-ethoxypyridine-3-yl)-N'-(3-(1-hydroxyethyl)benzylidene)pyrazine-2-carbohydrazide]	500 to 1000 nM	> 1000 nM
CCOc1ccc(-c2cncc(C(=O)N/N=C/c3cc(OC4CNC4)cnc3F)n2)cn1 [Compound 34, (E)-N'-((5-(azetidin-3-yloxy)-2-fluoropyridine-3-yl)methylene)-6-(6-ethoxypyridine-3-yl) pyrazine-2-carbohydrazide]	> 1000 nM	> 1000 nM
COc1ccc(F)c(/C=N/NC(=O)c2cncc(-c3ccc(OCC4CNC4)nc3)n2)c1 [Compound 140, (E)-6-(6-(azetidin-3-ylmethoxy)pyridine-3-yl)-N'-(2-fluoro-5-methoxybenzylidene) pyrazine-2-carbohydrazide]	> 1000 nM	> 1000 nM
CCOc1ccc(-c2cncc(C(=O)N/N=C/c3cccc(O)n3)n2)cn1 [Compound 40, (E)-6-(6-ethoxypyridine-3-yl)-N'-((6-hydroxypyridine-2-yl)methylene)pyrazine-2-carbohydrazide]	> 1000 nM	> 1000 nM
COc1ccc(F)c(/C=N/NC(=O)c2cncc(-c3ccc(OCCC4CNC4)nc3)n2)c1 [Compound 141, (E)-6-(6-(2-(azetidin-3-yl)ethoxy)pyridine-3-yl)-N'-(2-fluoro-5-methoxybenzylidene)pyrazine-2-carbohydrazide]	> 1000 nM	> 1000 nM
CCOc1ccc(-c2cncc(C(=O)N/N=C/c3cc(C(C)O)cnc3F)n2)cn1 (centres unmarked) [Compound 25, (E)-6-(6-ethoxypyridine-3-yl)-N'-((2-fluoro-5-(1-hydroxyethyl)pyridine-3-yl)methylene) pyrazine-2-carbohydrazide]	500 to 1000 nM	> 1000 nM
CC(O)c1cnc(F)c(/C=N/NC(=O)c2cncc(-c3ccc(OC(F)F)nc3)n2)c1 (centres unmarked) [Compound 112, (E)-6-(6-(difluoromethoxy)pyridine-3-yl)-N'-((2-fluoro-5-(1-hydroxyethyl)pyridine-3-yl)methylene)pyrazine-2-carbohydrazide]	500 to 1000 nM	> 1000 nM
CCOc1ccc(-c2cncc(C(=O)N/N=C/c3c[nH]nc3C)n2)cn1 [Compound 57, (E)-6-(6-ethoxypyridine-3-yl)-N'-((3-methyl-1H-pyrazole-4-yl)methylene)pyrazine-2-carbohydrazide]	> 1000 nM	> 1000 nM
CCOc1ncc(-c2cncc(C(=O)N/N=C/c3cc(OC)cnc3F)n2)cc1O [Compound 157, (E)-6-(6-ethoxy-5-hydroxypyridine-3-yl)-N'-((2-fluoro-5-methoxypyridine-3-yl)methylene) pyrazine-2-carbohydrazide]	500 to 1000 nM	> 1000 nM
CCOc1ccc(-c2cncc(C(=O)N/N=C/c3cc(OC)cc(O)c3F)n2)cn1 [Compound 44, (E)-6-(6-ethoxypyridine-3-yl)-N'-(2-fluoro-3-hydroxy-5-methoxybenzylidene) pyrazine-2-carbohydrazide]	> 1000 nM	> 1000 nM
COc1cnc(F)c(/C=N/N(C)C(=O)c2cncc(-c3ccc(OC(F)F)nc3)n2)c1 [Compound 176, (E)-6-(6-(difluoromethoxy)pyridine-3-yl)-N'-((2-fluoro-5-methoxypyridine-3-yl)methylene)-N-methylpyrazine-2-carbohydrazide]	> 1000 nM	> 1000 nM
COc1cnc(F)c(/C=N/NC(=O)c2cncc(-c3ccc(OC4CNC4)nc3)n2)c1 [Compound 142, (E)-6-(6-(azetidin-3-yloxy)pyridine-3-yl)-N'-((2-fluoro-5-methoxypyridine-3-yl)methylene)pyrazine-2-carbohydrazide]	> 1000 nM	> 1000 nM
COc1ccc(F)c(/C=N/NC(=O)c2cncc(-c3ccc(OCC4CN(C)C4)nc3)n2)c1 [Compound 146, (E)-N'-(2-fluoro-5-methoxybenzylidene)-6-(6-((1-methylazetidine-3-yl)methoxy)pyridine-3-yl)pyrazine-2-carbohydrazide]	> 1000 nM	> 1000 nM

Second part, the molecule after the results:

IC50 [1]	IC50 [2]	SMILES
< 500 nM	> 1000 nM	[2H]C([2H])(C)Oc1ccc(-c2cncc(C(=O)N/N=C/c3cc(OC)cnc3F)n2)cn1 [Compound 169, (E)-6-(6-(ethoxy-1,1-d2)pyridine-3-yl)-N'-((2-fluoro-5-methoxypyridine-3-yl)methylene)pyrazine-2-carbohydrazide]
< 500 nM	> 1000 nM	CN(C)c1ccc(F)c(/C=N/NC(=O)c2cncc(-c3ccc(OC(F)(F)F)nc3)n2)c1 [Compound 93, (E)-N'-(5-(dimethylamino)-2-fluorobenzylidene)-6-(6-(trifluoromethoxy)pyridine-3-yl) pyrazine-2-carbohydrazide]
< 500 nM	> 1000 nM	CN(C)c1ccc(F)c(/C=N/NC(=O)c2cncc(-c3ccc(OC(F)F)nc3)n2)c1 [Compound 104, (E)-6-(6-(difluoromethoxy)pyridine-3-yl)-N'-(5-(dimethylamino)-2-fluorobenzylidene) pyrazine-2-carbohydrazide]
< 500 nM	500 to 1000 nM	COc1cc(/C=N/NC(=O)c2cncc(-c3ccc(OC4CC4)nc3)n2)ccc1F [Compound 81, (E)-6-(6-cyclopropoxypyridine-3-yl)-N'-(4-fluoro-3-methoxybenzylidene)pyrazine-2-carbohydrazide]
< 500 nM	> 1000 nM	CCOc1ccc(-c2cncc(C(=O)N/N=C/c3cc(OC)cnc3F)n2)cn1 [Compound 7, (E)-6-(6-ethoxypyridine-3-yl)-N'-((2-fluoro-5-methoxypyridine-3-yl)methylene)pyrazine-2-carbohydrazide]
< 500 nM	500 to 1000 nM	CCOc1ccc(-c2cncc(C(=O)N/N=C/c3ccc(F)c(OC)c3)n2)cn1 [Compound 2, (E)-6-(6-ethoxypyridine-3-yl)-N'-(4-fluoro-3-methoxybenzylidene)pyrazine-2-carbohydrazide]
< 500 nM	> 1000 nM	COc1ccc(F)c(/C=N/NC(=O)c2cncc(-c3ccc(OC(F)(F)F)nc3)n2)c1 [Compound 83, (E)-N'-(2-fluoro-5-methoxybenzylidene)-6-(6-(trifluoromethoxy)pyridine-3-yl)pyrazine-2-carbohydrazide]
< 500 nM	> 1000 nM	CCOc1ccc(F)c(/C=N/NC(=O)c2cncc(-c3ccc(OC(F)(F)F)nc3)n2)c1 [Compound 91, (E)-N'-(5-ethoxy-2-fluorobenzylidene)-6-(6-(trifluoromethoxy)pyridine-3-yl)pyrazine-2-carbohydrazide]
< 500 nM	500 to 1000 nM	CCOc1ccc(-c2cncc(C(=O)N/N=C/c3cc(OC)c(F)cc3F)n2)cn1 [Compound 3, (E)-N'-(2,4-difluoro-5-methoxybenzylidene)-6-(6-ethoxypyridine-3-yl)pyrazine-2-carbohydrazide]
< 500 nM	500 to 1000 nM	CCOc1ccc(-c2cncc(C(=O)N/N=C/c3cc(OC)ccc3C)n2)cn1 [Compound 17, (E)-6-(6-ethoxypyridine-3-yl)-N'-(5-methoxy-2-methylbenzylidene)pyrazine-2-carbohydrazide]
< 500 nM	> 1000 nM	CCOc1ccc(-c2cncc(C(=O)N/N=C/c3cc(N(C)C)ccc3F)n2)cn1 [Compound 11, (E)-N'-(5-(dimethylamino)-2-fluorobenzylidene)-6-(6-ethoxypyridine-3-yl)pyrazine-2-carbohydrazide]
< 500 nM	> 1000 nM	CCOc1ccc(-c2cncc(C(=O)N/N=C/c3nc(OC)ccc3F)n2)cn1 [Compound 15, (E)-6-(6-ethoxypyridine-3-yl)-N'-((3-fluoro-6-methoxypyridine-2-yl)methylene)pyrazine-2-carbohydrazide]
< 500 nM	< 500 nM	CC(C)Oc1ccc(F)c(/C=N/NC(=O)c2cncc(-c3ccc(OC4CC4)nc3)n2)c1 [Compound 79, (E)-6-(6-cyclopropoxypyridine-3-yl)-N'-(2-fluoro-5-isopropoxybenzylidene) pyrazine-2-carbohydrazide]
< 500 nM	> 1000 nM	COc1ccnc(/C=N/NC(=O)c2cncc(-c3ccc(OC(F)(F)F)nc3)n2)c1 [Compound 85, (E)-N'-((4-methoxypyridine-2-yl)methylene)-6-(6-(trifluoromethoxy)pyridine-3-yl)pyrazine-2-carbohydrazide]
< 500 nM	< 500 nM	O=C(N/N=C/c1cc(OC2CC2)ccc1F)c1cncc(-c2ccc(OC(F)(F)F)nc2)n1 [Compound 94, (E)-N'-(5-cyclopropoxy-2-fluorobenzylidene)-6-(6-(trifluoromethoxy)pyridine-3-yl)pyrazine-2-carbohydrazide]
